What all share (test): inhibition of tumour cell growth, NCI panel, 48 h
Experiment [1] relates to MALME-3M melanoma.
The test system of experiment [2] is UO-31 renal.
The test system of experiment [3] is CCRF-CEM leukemia.
Experiment [4] deals with BT-549 breast.
Experiment [5] has as its system NCI-H522 lung.
For experiment [6], the system named is U251 CNS.
The test system of experiment [7] is M14 melanoma.
For experiment [8], the system named is MDA-MB-435.
The test system of experiment [9] is TK-10 renal.
Experiment [10] concerns UACC-257 melanoma.

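48-hour exposure; five concentrations; linearly interpolated endpoints. At the GI50, growth is halved. TGI: total growth inhibition.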

GI50 and TGI data for 20 compounds are collected here from PubChem BioAssay (NCI).

Take `COc1ccc2c(c1)CCc1[nH]nc(-c3cc(OC)c(OC)c(OC)c3)c1-2`: the GI50 in experiment [1], in [2], in experiment [3], in experiment [4], in experiment [5] and in experiment [6] was under 0.01 µM in each case. The GI50 in experiment [7] and in experiment [8] was under 0.01 µM throughout. Moreover, the TGI in experiment [1] is 33.9 µM; in experiment [2], 17.3 µM; in experiment [3], over 100 µM; in [4], 10.6 µM; in experiment [5] it was under 0.01 µM; in experiment [6], 11.5 µM. The TGI in experiment [7] was 10.9 µM; in [8], under 0.01 µM.

As for `CCN(CC)CCCC(C)Nc1c2ccc(Cl)cc2nc2cc(OC)c(OC)cc12` (centres undefined), the GI50 in experiment [1] is 1.86 µM; in experiment [9] it was 1.99 µM; in experiment [2], 1.43 µM; in experiment [3] it was 1.52 µM; in experiment [4] it was 3.87 µM; in experiment [5], 2.35 µM. For the same compound, the GI50 in experiment [10] is 2.23 µM; in experiment [7], 1.88 µM; in [8], 1.65 µM. In addition, the TGI in [1] is 3.52 µM; in [9], 5.04 µM; in experiment [2], 2.89 µM; in [3], 10.3 µM; in experiment [4], 17.8 µM; in experiment [5], 5.76 µM. In addition, the TGI in [10] was determined as 4.1 µM; in experiment [7] it was 3.56 µM; in experiment [8], 3.08 µM.

For the compound `O=C(/C=C/c1cccc([N+](=O)[O-])c1)c1ccc(O)c(CN2CCN(c3cc4c(cc3F)c(=O)c(C(=O)O)cn4C3CC3)CC2)c1`, the GI50 in experiment [1] is 1.93 µM; in experiment [9] it was 2.1 µM; in experiment [2], 1.29 µM; in [3], 1.6 µM; in [4] it was 1.54 µM; in [6], 1.17 µM. The GI50 was 1.69 µM in experiment [10] and 1.67 µM in [8]. Also, the TGI in experiment [1] was found to be 4.25 µM; in experiment [9], 5.59 µM; in [2], 2.67 µM; in experiment [3], 10.8 µM; in [4], 3.31 µM; in experiment [6] it was 2.62 µM. Besides, the TGI in [10] was determined as 3.35 µM; in [8] it was 3.21 µM.

In the case of `O=CC(Br)C(Br)c1ccccc1` (centres undefined), the GI50 in experiment [9] was 1.74 µM; in [2], 1.48 µM; in experiment [3], 0.374 µM; in experiment [4] it was 2.77 µM; in [5] it was 1.72 µM; in experiment [6], 7.4 µM. For the same compound, the GI50 in experiment [10] is 1.9 µM; in [7] it was 2 µM; in experiment [8], 1.74 µM. Also, the TGI in experiment [9] is 3.56 µM; in experiment [2], 3.07 µM; in experiment [3], 1.94 µM; in experiment [4] it was 8.47 µM; in [5], 3.56 µM; in experiment [6], 20.4 µM. Moreover, the figures for the TGI in experiment [10], in [7] and in experiment [8] were 4.56 µM, 4.88 µM and 3.63 µM, respectively.

Consider `O=C(Nc1ccc2[nH]c(C(=O)N3CC(CCl)c4c3cc([N+](=O)[O-])c3ccccc43)cc2c1)c1cc2ccccc2o1` (centres undefined), for which the GI50 in [1] is over 1100 µM; in experiment [2] it was over 1100 µM; in experiment [3] it was 66.4 µM; in [4] it was over 1100 µM; in experiment [5] it was over 1100 µM; in experiment [6] it was over 1100 µM. Further, the GI50 in experiment [10], in experiment [7] and in experiment [8] was over 1100 µM each time. The TGI was over 1100 µM in experiment [1]; over 1100 µM in experiment [2]; 377 µM in experiment [3]; over 1100 µM in experiment [4]; over 1100 µM in experiment [5]; over 1100 µM in [6]. The TGI in experiment [10], in experiment [7] and in experiment [8] was over 1100 µM throughout.

Turning to `CN1CCN(C(=O)c2c(NC(=O)NS(=O)(=O)c3ccccc3)sc3c2CCCCC3)CC1`, the GI50 is over 100 µM in experiment [2]; 32.8 µM in experiment [3]; 26.3 µM in [4]; 30.4 µM in experiment [5]; 35.6 µM in [10]; 21.6 µM in [7]. In addition, the GI50 in experiment [8] was 26.2 µM. Besides, the TGI in experiment [2] was over 100 µM; in [3], over 100 µM; in experiment [4], 98.6 µM; in experiment [5], 98.6 µM; in experiment [10] it was over 100 µM; in experiment [7], 49.8 µM. Moreover, the TGI in [8] came out at 67.8 µM.

For `c1cncc(-c2nc3ccccc3s2)c1`, the GI50 was over 100 µM in [1]; over 100 µM in experiment [9]; 29.5 µM in experiment [2]; 74 µM in [4]; over 100 µM in [5]; 97 µM in experiment [6]. For the same compound, the GI50 in experiment [10], in [7] and in experiment [8] was over 100 µM in each case. The TGI in experiment [1], in experiment [9], in experiment [2], in experiment [4], in experiment [5] and in experiment [6] was over 100 µM in each case. Also, the TGI in experiment [10], in experiment [7] and in experiment [8] was over 100 µM each time.

In the case of `Nc1nc(NC2C=C(CO)C(O)C2O)c([N+](=O)[O-])c(=O)[nH]1` (centres undefined), the TGI in [1], in experiment [9], in experiment [2], in experiment [3], in experiment [5] and in [6] was over 100 µM each time. The TGI in experiment [10] and in [7] was over 100 µM each time.

For the compound `CCCCCCCC(=O)OCC1OC(n2cc(F)c(=O)[nH]c2=O)C(NC(=O)OCc2ccccc2)C(O)C1O` (centres undefined), the TGI is over 100 µM in experiment [1]; over 100 µM in experiment [9]; over 100 µM in experiment [2]; over 100 µM in experiment [3]; 92 µM in [5]; over 100 µM in experiment [6]. Also, the TGI in experiment [10] and in experiment [7] was over 100 µM each time.

In the case of `COc1cc(C=O)c(-c2cc3c(cc2C2(C)OCCS2)OCO3)c(OC)c1OC` (centres undefined), the TGI in [1] was 90.8 µM; in [9], over 205 µM; in experiment [2], 64.2 µM; in [3], over 160 µM; in experiment [5], 13 µM; in experiment [6], 72 µM. The TGI in [10] was found to be 43.4 µM; in experiment [7], 16.1 µM.

Consider `COc1ccc(SC2c3ccc(C)cc3Oc3nc(N)c(C#N)c(N)c32)cc1` (centres undefined), for which the GI50 in [1] is 1.68 µM; in [9] it was 1.74 µM; in experiment [2], 1.39 µM; in experiment [3], 2.85 µM; in [4], 1.56 µM; in experiment [6], 1.81 µM. Moreover, the GI50 in experiment [10] was 1.99 µM; in experiment [7] it was 1.76 µM; in experiment [8], 1.69 µM. In addition, the TGI amounted to 3.13 µM in [1]; 3.12 µM in [9]; 2.68 µM in experiment [2]; 7.67 µM in experiment [3]; 2.9 µM in experiment [4]; 3.22 µM in experiment [6]. For the same compound, the values for the TGI in experiment [10], in experiment [7] and in experiment [8] were 3.49 µM, 3.41 µM and 3.16 µM, respectively.

Consider `N#Cc1ccc(C2C3=C(CCCC3=O)OC3=C2C(=O)c2ccccc2C3=O)cc1` (centres undefined), for which the GI50 in experiment [1] was 1.55 µM; in [2], 1.67 µM; in experiment [3] it was 0.951 µM; in experiment [4], 1.56 µM; in experiment [5] it was 1.99 µM; in experiment [6] it was 1.7 µM. For the same compound, the GI50 in experiment [10] is 1.55 µM; in experiment [7], 1.71 µM; in experiment [8] it was 0.216 µM. Also, the TGI is 3.05 µM in experiment [1]; 3.14 µM in experiment [2]; over 100 µM in [3]; 2.92 µM in experiment [4]; 4.31 µM in [5]; 3.16 µM in [6]. Moreover, the TGI in [10] was found to be 2.94 µM; in experiment [7], 3.37 µM; in experiment [8], 0.444 µM.

For `CC1(C)N=C(N)N=C(N)N1c1ccc(CCc2ccc(Cl)cc2S(=O)(=O)F)c(Cl)c1`, the GI50 in [1] is 14.7 µM; in experiment [2], over 100 µM; in [3], 6.73 µM; in [6] it was 4.42 µM; in experiment [10], 9.6 µM; in [7] it was 6.2 µM. Further, the GI50 in [8] is 4.27 µM. Moreover, the TGI in experiment [1] was 60.3 µM; in experiment [2] it was over 100 µM; in [3], 44.4 µM; in experiment [6], 20.6 µM; in experiment [10], 27.5 µM; in experiment [7], over 100 µM. Besides, in experiment [8], the TGI came to 25.4 µM.

As to `O=c1cc(-c2ccccc2)nc(/C=C(\O)c2ccncc2)n1-c1ccccc1`, the TGI in experiment [1], in experiment [9], in [2], in experiment [3], in experiment [5] and in experiment [6] was over 100 µM in each case. In addition, the TGI in [10] and in [7] was over 100 µM each time.

In the case of `Cc1ccc(C(=O)N2CCN(C(=O)c3ccc(C)cc3)c3ccccc32)cc1`, the TGI in [1] was over 100 µM; in [9], over 100 µM; in experiment [2] it was over 56.6 µM; in [3], over 100 µM; in experiment [4], over 100 µM; in experiment [5], 5.96 µM. Also, the figures for the TGI in [6], in experiment [10] and in experiment [7] were 24.9 µM, over 100 µM and over 100 µM, respectively.

Regarding `C[C@]1(C(=O)O)N[C@H](C(=O)O)CS1`, the GI50 in [1], in [9], in experiment [2], in [3], in [5] and in experiment [6] was over 1000 µM each time. Also, the GI50 in [10], in experiment [7] and in experiment [8] was over 1000 µM in each case. Moreover, the TGI in experiment [1], in experiment [9], in experiment [2], in experiment [3], in experiment [5] and in [6] was over 1000 µM in each case. Besides, the TGI in [10], in experiment [7] and in experiment [8] was over 1000 µM in each case.

Regarding `CCCCN=C(NC#N)N(Cc1ccccc1)Cc1ccccc1`, the TGI in experiment [1] is over 100 µM; in experiment [9], over 100 µM; in [2], 58 µM; in experiment [3], 49.2 µM; in experiment [5], 31.1 µM; in [6], 81.3 µM. Also, the TGI in [10] is 64.9 µM; in [7], 53.3 µM.

With `CC1(C)CCC[C@]2(C)c3cc(O)ccc3CC[C@@H]12`, the GI50 in [9] was 18.2 µM; in experiment [2] it was 19.9 µM; in experiment [4], 19.4 µM; in [5], 21.5 µM; in [6], 14.6 µM; in experiment [10] it was 19.6 µM. The GI50 in experiment [7] was 28.2 µM; in experiment [8], 6.65 µM. Also, the TGI in experiment [9] turned out to be 33.7 µM; in experiment [2], 40.2 µM; in experiment [4], 33.5 µM; in [5], 47.4 µM; in experiment [6], 29.1 µM; in experiment [10], 36 µM. The TGI in [7] was over 100 µM; in experiment [8] it was 21 µM.

Turning to `N#C/C(=C\Nc1ccccn1)C(=O)c1ccco1`, the TGI in experiment [1], in experiment [9], in experiment [2], in experiment [4], in experiment [5] and in experiment [6] was over 100 µM each time. For the same compound, the TGI in [10], in experiment [7] and in experiment [8] was over 100 µM throughout.

With `O=C(O)C1C(=O)Oc2c(cccc2[N+](=O)[O-])C1O` (centres undefined), the TGI in [1], in experiment [9], in [3], in experiment [4], in experiment [5] and in experiment [6] was over 100 µM in each case. The TGI in experiment [10], in experiment [7] and in experiment [8] was over 100 µM in each case.
